Assay results from ChEMBL document CHEMBL1201862, “PubChem BioAssay data set” (2004).
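Interpolation was linear, between the two tested concentrations surrounding the appropriate level; five concentrations were tested over 48 hours in 96-well plates. GI50 is the concentration that inhibits growth by half.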 Calls of active or inactive are those of the source. Rule as the data show it: active = GI50 up to about 1.1 µM and inactive = higher.

Assays:
Test in all cases: inhibition of tumour cell growth, NCI panel, 48 h
SK-OV-3 = tested on: SK-OV-3
KM12 = tested on: KM12
HT-29 = tested on: HT-29
BT-549 = tested on: BT-549
RPMI-8226 = tested on: RPMI-8226
EKVX = tested on: EKVX
COLO 205 = tested on: COLO 205
HL-60 = tested on: HL-60
TK-10 = tested on: TK-10
UO-31 = tested on: UO-31
IGROV-1 = tested on: IGROV-1
NCI/ADR-RES = tested on: NCI/ADR-RES
LOX IMVI = tested on: LOX IMVI
CAKI-1 = tested on: CAKI-1
RXF 393 = tested on: RXF 393
T47D = tested on: T47D
HCT-15 = tested on: HCT-15
SK-MEL-2 = tested on: SK-MEL-2
SK-MEL-28 = tested on: SK-MEL-28
SK-MEL-5 = tested on: SK-MEL-5
SNB-75 = tested on: SNB-75
NCI-H226 = tested on: NCI-H226
HCT-116 = tested on: HCT-116
NCI-H522 = tested on: NCI-H522
SW-620 = tested on: SW-620
SF-539 = tested on: SF-539
A549 = tested on: A549
HOP-62 = tested on: HOP-62
PC-3 = tested on: PC-3
OVCAR-5 = tested on: OVCAR-5
SR = tested on: SR
CCRF-CEM = tested on: CCRF-CEM
K562 = tested on: K562
HOP-92 = tested on: HOP-92
MDA-MB-231 = tested on: MDA-MB-231
M14 = tested on: M14
SF-268 = tested on: SF-268
UACC-62 = tested on: UACC-62
SN12C = tested on: SN12C
NCI-H23 = tested on: NCI-H23
MCF7 = tested on: MCF7
OVCAR-8 = tested on: OVCAR-8
NCI-H460 = tested on: NCI-H460
SNB-19 = tested on: SNB-19
Malme-3M = tested on: Malme-3M
786-0 = tested on: 786-0
UACC-257 = tested on: UACC-257
SF-295 = tested on: SF-295
ACHN = tested on: ACHN
MDA-N = tested on: MDA-N
MDA-MB-435 = tested on: MDA-MB-435
DU-145 = tested on: DU-145
U-251 = tested on: U-251
A498 = tested on: A498
OVCAR-4 = tested on: OVCAR-4
Hs-578T = tested on: Hs-578T
MOLT-4 = tested on: MOLT-4
OVCAR-3 = tested on: OVCAR-3
HCC 2998 = tested on: HCC 2998

## COc1ccc2c(c1)-c1nn(CCN(C)C)c3ccc(C(=O)NCCCN(C)CCCNC(=O)c4ccc5c6c(c7cc(OC)ccc7nc46)NN5CCN(C)C)c(c13)N2
SK-OV-3
  GI50: 0.0861 µM (active)
KM12
  GI50: 0.0284 µM (active)
HT-29
  GI50: 0.0213 µM (active)
BT-549
  GI50: 0.138 µM (active)
RPMI-8226
  GI50: 0.0105 µM (active)
EKVX
  GI50: 0.143 µM (active)
COLO 205
  GI50: 0.0169 µM (active)
HL-60
  GI50: 0.204 µM (active)
TK-10
  GI50: 0.102 µM (active)
UO-31
  GI50: 0.183 µM (active)
IGROV-1
  GI50: 0.0215 µM (active)
NCI/ADR-RES
  GI50: 1.7 µM (inactive)
LOX IMVI
  GI50: 0.0192 µM (active)
CAKI-1
  GI50: 0.346 µM (active)
RXF 393
  GI50: 0.0366 µM (active)
T47D
  GI50: 0.158 µM (active)
HCT-15
  GI50: 0.251 µM
SK-MEL-2
  GI50: 0.0184 µM (active)
SK-MEL-28
  GI50: 0.0561 µM (active)
SK-MEL-5
  GI50: 0.0512 µM (active)
SNB-75
  GI50: 0.114 µM (active)
NCI-H226
  GI50: 0.155 µM (active)
HCT-116
  GI50: < 0.01 µM (active)
NCI-H522
  GI50: < 0.01 µM (active)
SW-620
  GI50: 0.018 µM (active)
SF-539
  GI50: < 0.01 µM (active)
A549
  GI50: 0.0136 µM (active)
HOP-62
  GI50: 0.0318 µM (active)
PC-3
  GI50: 0.0208 µM (active)
OVCAR-5
  GI50: 0.126 µM (active)
SR
  GI50: 0.127 µM (active)
CCRF-CEM
  GI50: < 0.01 µM (active)
K562
  GI50: 0.0128 µM (active)
HOP-92
  GI50: 0.0478 µM (active)
MDA-MB-231
  GI50: 0.114 µM (active)
M14
  GI50: 0.0822 µM (active)
SF-268
  GI50: 0.153 µM (active)
UACC-62
  GI50: 0.0692 µM (active)
SN12C
  GI50: 0.0225 µM (active)
NCI-H23
  GI50: 0.0344 µM (active)
MCF7
  GI50: 0.0202 µM (active)
OVCAR-8
  GI50: 0.0133 µM (active)
NCI-H460
  GI50: 0.0187 µM (active)
SNB-19
  GI50: 0.0159 µM (active)
Malme-3M
  GI50: 0.106 µM (active)
786-0
  GI50: 0.0313 µM (active)
UACC-257
  GI50: 0.0702 µM (active)
SF-295
  GI50: 0.0671 µM (active)
ACHN
  GI50: 0.0607 µM (active)
MDA-N
  GI50: 0.0361 µM (active)
MDA-MB-435
  GI50: 0.0401 µM (active)
DU-145
  GI50: 0.0284 µM (active)
U-251
  GI50: < 0.01 µM (active)
A498
  GI50: 0.0859 µM (active)
OVCAR-4
  GI50: 0.0352 µM (active)
Hs-578T
  GI50: 0.201 µM (active)
MOLT-4
  GI50: < 0.01 µM (active)
OVCAR-3
  GI50: 0.0933 µM (active)
HCC 2998
  GI50: 0.045 µM (active)

## COc1ccc2nc(NC(=O)/C(C#N)=C/c3ccccc3)sc2c1
SK-OV-3
  GI50: > 70.6 µM (inactive)
KM12
  GI50: > 41.7 µM (inactive)
HT-29
  GI50: 46.7 µM (inactive)
BT-549
  GI50: 52.2 µM (inactive)
RPMI-8226
  GI50: 23.4 µM (inactive)
EKVX
  GI50: 38.4 µM (inactive)
COLO 205
  GI50: 48.3 µM (inactive)
HL-60
  GI50: 9.35 µM (inactive)
TK-10
  GI50: 26.4 µM (inactive)
UO-31
  GI50: 36.8 µM (inactive)
IGROV-1
  GI50: 29.4 µM (inactive)
NCI/ADR-RES
  GI50: > 39 µM (inactive)
LOX IMVI
  GI50: 39.4 µM (inactive)
CAKI-1
  GI50: 31 µM (inactive)
RXF 393
  GI50: > 61.4 µM (inactive)
T47D
  GI50: 30.1 µM (inactive)
HCT-15
  GI50: 24.7 µM
SK-MEL-2
  GI50: > 100 µM (inactive)
SK-MEL-28
  GI50: 66.7 µM (inactive)
SK-MEL-5
  GI50: 20.8 µM (inactive)
SNB-75
  GI50: > 45.7 µM (inactive)
NCI-H226
  GI50: > 58.2 µM (inactive)
HCT-116
  GI50: 24.7 µM (inactive)
NCI-H522
  GI50: 15.2 µM (inactive)
SW-620
  GI50: 46.9 µM (inactive)
SF-539
  GI50: 27.7 µM (inactive)
A549
  GI50: 59.4 µM (inactive)
HOP-62
  GI50: > 64.1 µM (inactive)
PC-3
  GI50: > 61 µM (inactive)
OVCAR-5
  GI50: > 100 µM (inactive)
SR
  GI50: 4.43 µM (inactive)
CCRF-CEM
  GI50: 14.1 µM (inactive)
K562
  GI50: 23.5 µM (inactive)
HOP-92
  GI50: 32.7 µM (inactive)
MDA-MB-231
  GI50: > 79.8 µM (inactive)
M14
  GI50: > 54.1 µM (inactive)
SF-268
  GI50: > 56.5 µM (inactive)
UACC-62
  GI50: 23.1 µM (inactive)
SN12C
  GI50: 40.6 µM (inactive)
NCI-H23
  GI50: > 67.3 µM (inactive)
MCF7
  GI50: 36.2 µM (inactive)
OVCAR-8
  GI50: > 51.6 µM (inactive)
NCI-H460
  GI50: 38 µM (inactive)
SNB-19
  GI50: > 100 µM (inactive)
Malme-3M
  GI50: > 49 µM (inactive)
786-0
  GI50: 44.9 µM (inactive)
UACC-257
  GI50: 27 µM (inactive)
SF-295
  GI50: 55.6 µM (inactive)
ACHN
  GI50: 35.6 µM (inactive)
MDA-N
  GI50: 34.8 µM (inactive)
MDA-MB-435
  GI50: 24.5 µM (inactive)
DU-145
  GI50: > 52.6 µM (inactive)
U-251
  GI50: 50.1 µM (inactive)
A498
  GI50: 37.3 µM (inactive)
OVCAR-4
  GI50: 37.6 µM (inactive)
Hs-578T
  GI50: > 48.5 µM (inactive)
MOLT-4
  GI50: 27.5 µM (inactive)
OVCAR-3
  GI50: 18.4 µM (inactive)
HCC 2998
  GI50: 44.3 µM (inactive)

## Cc1ccc(C(=O)/C=C2/Nc3ccc([N+](=O)[O-])cc3N/C2=C/C(=O)c2ccc(C)cc2)cc1
SK-OV-3
  GI50: 41.1 µM (inactive)
KM12
  GI50: > 100 µM (inactive)
HT-29
  GI50: > 100 µM (inactive)
BT-549
  GI50: > 100 µM (inactive)
RPMI-8226
  GI50: > 100 µM (inactive)
EKVX
  GI50: 61.4 µM (inactive)
COLO 205
  GI50: > 100 µM (inactive)
HL-60
  GI50: 34.7 µM (inactive)
TK-10
  GI50: > 100 µM (inactive)
UO-31
  GI50: > 100 µM (inactive)
IGROV-1
  GI50: 42.5 µM (inactive)
NCI/ADR-RES
  GI50: 47.6 µM (inactive)
LOX IMVI
  GI50: > 100 µM (inactive)
CAKI-1
  GI50: 87.5 µM (inactive)
RXF 393
  GI50: 36.6 µM (inactive)
T47D
  GI50: > 100 µM (inactive)
HCT-15
  GI50: 90.8 µM
SK-MEL-2
  GI50: 66.5 µM (inactive)
SK-MEL-28
  GI50: > 100 µM (inactive)
SK-MEL-5
  GI50: > 100 µM (inactive)
SNB-75
  GI50: 10.6 µM (inactive)
NCI-H226
  GI50: > 100 µM (inactive)
HCT-116
  GI50: > 100 µM (inactive)
NCI-H522
  GI50: 47.1 µM (inactive)
SW-620
  GI50: > 100 µM (inactive)
SF-539
  GI50: 52.8 µM (inactive)
A549
  GI50: > 100 µM (inactive)
HOP-62
  GI50: 15.3 µM (inactive)
PC-3
  GI50: 92.3 µM (inactive)
OVCAR-5
  GI50: > 100 µM (inactive)
SR
  GI50: 54.2 µM (inactive)
CCRF-CEM
  GI50: 88.3 µM (inactive)
K562
  GI50: 85.5 µM (inactive)
HOP-92
  GI50: 61.4 µM (inactive)
MDA-MB-231
  GI50: 29.1 µM (inactive)
M14
  GI50: > 100 µM (inactive)
SF-268
  GI50: 52.4 µM (inactive)
UACC-62
  GI50: 24.7 µM (inactive)
SN12C
  GI50: > 100 µM (inactive)
NCI-H23
  GI50: 37.7 µM (inactive)
MCF7
  GI50: 84.1 µM (inactive)
OVCAR-8
  GI50: 36 µM (inactive)
NCI-H460
  GI50: > 100 µM (inactive)
SNB-19
  GI50: 43.8 µM (inactive)
Malme-3M
  GI50: > 100 µM (inactive)
786-0
  GI50: 60.7 µM (inactive)
UACC-257
  GI50: > 100 µM (inactive)
SF-295
  GI50: 41.3 µM (inactive)
ACHN
  GI50: 37.5 µM (inactive)
MDA-N
  GI50: > 100 µM (inactive)
MDA-MB-435
  GI50: > 100 µM (inactive)
DU-145
  GI50: > 100 µM (inactive)
U-251
  GI50: 27.7 µM (inactive)
A498
  GI50: 44.7 µM (inactive)
OVCAR-4
  GI50: 61.4 µM (inactive)
Hs-578T
  GI50: 23.2 µM (inactive)
MOLT-4
  GI50: > 100 µM (inactive)
OVCAR-3
  GI50: > 100 µM (inactive)
HCC 2998
  GI50: > 100 µM (inactive)
